Measurements from US11530246B2, “Regulated synthetic gene expression systems” (TRUSTEES OF BOSTON UNIVERSITY, priority 2019, dated 2022).
Entries after “also recorded” stand apart in the source; their conditions may differ. Blank lines part the entries; values can stand above or below the compound they belong to.

How the values were obtained:
ZF-responsive promoter [1] = assay: Small molecule inducible synTF activation of fluorescent reporter in HEK293 and Jurkat cell lines; type: cell-based, human; settings: both HEK293 and Jurkat cell lines; compared to untreated
Description: Output fluorescence as a function of several different small molecule (e.g., ABA, 4OHT, or grazoprevir) treatment concentrations is also indicated here.
Inducible synTFs were first characterized using GFP (or another detectable marker such as mCherry) as the reporter. The whole system was introduced into Jurkat T cells via lentiviral transduction with multiplicity of infection of 25 to ensure high efficiency, quantifying viral copy number (VCN) with qPCR. To characterize the inducible synTF controllers, cells at 5×10^4 cells each in 96-well plates were inoculated with lentivirus, and eight different drug concentrations were added spanning three orders of magnitude (e.g., GZV 0-10 μM, 4OHT 0-1 μM), and GFP expression levels can be quantified with flow cytometry (see e.g., FIG. 10A-10D). Gene expression levels can be normalized to VCN. From these dose-responses, the dynamic range and threshold of activation can be defined. Since the single vector design can lack a selection marker, transduction efficiency was assumed to be equal to the percentage of GFP positive cells after induction by 4OHT or GZV.
Tunable gene activation was achieved using small molecule inducible synTFs. Inducibility profiles were determined for each of the three inducible synTF activators, in both HEK293 and Jurkat cell lines. The reporter expression was evaluated across time and varying drug concentrations. Day 4 represented the highest levels of expression that were assayed, indicating strong inducible expression in drug-treated lines relative to untreated cell lines (see e.g., FIG. 10A-10D).

ZF-responsive promoter [2] = assay: ABA-inducible transcriptional activation of a fluorescent protein using ABI/PYL domains, Jurkat; type: cell-based, human
Description: ABI/PYL induced proximity domains that are responsive to a small molecule (abscisic acid=ABA) can be used to regulate a synTF as described herein (see e.g., Liang et al. Sci Signal, 2011). The ABA-insensitive 1 (ABI1) and PYR1-like (PYL) domains originating form Arabidopsis thaliana have complementary surfaces that can conditionally interact when coordinated by the small molecule abscisic acid (ABA). ABA is a plant hormone that is naturally present at low levels within the human diet, and is subsequently presumed to be a safe small molecule for human administration.
Subsequently, the administration of ABA can allow conditional dimerization between the ABI1 and PYL subunits, allowing the ZF and effector domains to remain locally coupled and retaining synTF functionality (see e.g., FIG. 3).
Output fluorescence was measured as a function of several different ABA treatment concentrations as indicated (dose response; see e.g., FIG. 7A).

ZF-responsive promoter [3] = assay: Inducible synthetic transcriptional repression of a fluorescent protein, HEK293; type: cell-based, human; settings: compared to untreated
Description: Tunable gene silencing can also be achieved using small molecule inducible synTFs. Inducible synTFs were engineered that were capable of repressing gene expression. The responsive promoter was modified to constitutively express a fluorescent output. The p65 activation domain was replaced with a KRAB repression domain (human-derived silencer), and the same ZF-drug pairs were utilized as the synTF activators. Inducibility profiles were determined for each of the three inducible synTF repressors in HEK cell lines, and there was strong silencing of reporter expression over time in drug-treated lines relative to untreated cell lines (see e.g., FIG. 11A-11B, 12A-12C).

ZF-responsive promoter [4] = assay: Tunable activation of a fluorescent protein by co-administered 4OHT and GZV, ERT2 and SMASh domains, Jurkat; type: cell-based, human; settings: co-administration of varying 4OHT and GZV for 4 days
Description: Tunable synthetic transcriptional activation of a fluorescent protein in human cell lines using ERT2 and SMASh domains: Two Jurkat T cell lines were tested: (1) ZF-p65-ERT2-SMASh (C-terminal SMASh) and (2) SMASh-ZF-p65-ERT2 (N-terminal SMASh).

ZF-responsive promoter [5] = assay: Activation and tunable deactivation of a fluorescent protein using ERT2 and SMASh domains, Jurkat; type: cell-based, human
Description: Inducible synthetic transcriptional activation and tunable deactivation of a fluorescent protein in human cell lines using ERT2 and SMASh domains: Three Jurkat T cell lines were tested: (1) ZF-p65-ERT2 (no SMASh, see e.g., FIG. 4); (2) ZF-p65-ERT2-SMASh (C-terminal SMASh); and (3) SMASh-ZF-p65-ERT2 (N-terminal SMASh) (see e.g., FIG. 16A). […] Absence of a SMASh-responsive small molecule (grazoprevir) for 12 days led to equivalent, slow deactivation of the reporter to baseline levels. […] This rapid deactivation of the reporter was compared to the condition lacking the SMASh domain, which led to equivalent slow deactivation as in the “absence of grazoprevir” condition (see e.g., FIG. 16B).

ZF-responsive promoter [6] = assay: Dual-drug regulated IL4 and CD19-CAR expression in CD4+ primary human T cells; type: cell-based
Description: (see e.g., FIG. 14A-14B).

[7] = commonly taken at 100 mg/day for up to 12 weeks; cited from earlier work
ZF-responsive promoter [8] = assay: Inducible activation of CD19-CAR in CD4+ primary human T cells; type: cell-based
Description: (§1) Output fluorescence as a function of several different grazoprevir treatment concentrations is also indicated here. […] Cytokine production as a function of several different grazoprevir treatment concentrations is also indicated here (see e.g., FIG. 13A-13D).
(§2) Inducible synTFs can regulate […] expression in primary cells. The grazoprevir-inducible synTF was used to control expression of a CD19-CAR in primary CD4+ cells. […] Such results highlight that the ability to reliably control expression of outputs from therapeutic, thus controlling their functionalities in increasingly complex settings (see e.g., FIG. 13A-13D).

ZF-responsive promoter [9] = assay: Grazoprevir-inducible transcriptional repression of a fluorescent protein, HEK293 and Jurkat; type: cell-based, human; settings: compared to untreated
ZF-responsive promoter [10] = assay: Grazoprevir-inducible transcriptional activation of a fluorescent protein using NS3, Jurkat; type: cell-based, human
Description: Non-structural protein 3 (NS3) domain can be used for small molecule regulated control over synTF activity (see e.g., Lin et al. PNAS (2008)). The non-structural protein 3 (NS3) is a serine protease originating from the hepatitis C virus and is naturally capable of self-excision from expressed proteins.
Subsequently, the administration of one of these small molecules—e.g. grazoprevir—can prevent self-excision of NS3 from the fusion protein, allowing the ZF and effector domains to remain locally coupled and retaining synTF functionality.
In the presence of a small molecule, the NS3 protease activity is inhibited and the fusion protein complex is stabilized, permitting the transcription factor to regulate expression of an output gene from a responsive promoter (see e.g., FIG. 5A-5C).
Output fluorescence was measured as a function of several different grazoprevir treatment concentrations as indicated (dose response) (see e.g., FIG. 9A).

ZF-responsive promoter [11] = assay: Inducible activation of IL10 in Jurkat T cell lines, double or single lentiviral vector; type: cell-based, human; settings: 1 uM GZV for 2 days
Description: This inducible activation can be achieved through the delivery of separate lentiviral cassettes for NS3-synTF expression and IL10 production (“double lentiviral vector”), or through the delivery of a single lentiviral cassette expressing the NS3-synTF as well as regulating IL10 production (see e.g., FIG. 15A-15C).
A single lentiviral vector was engineered that was capable of expressing a grazoprevir-inducible synTF that would in turn regulate expression of IL-10. The size of this entire insert including expression elements was 3.5 kB, which is minimal and […] the total payload packaging limits of certain vectors.

[12] = system: CD19 antigen-presenting target cells; assay: Co-culture of induced CD19-CAR primary T cells with CD19 antigen-presenting target cells, cytokine production; type: cell-based, human
Description: as §1, §2

ZF-responsive promoter [13] = assay: Inducible repression of a fluorescent protein using ERT2 and SMASh domains, Jurkat; type: cell-based, human; settings: 6 days; KRAB-, HP1a-, EED-ZF-ERT2-SMASh lines
Description: Inducible synthetic transcriptional repression of a fluorescent protein in human cell lines using […] domains: Three Jurkat T cell lines were tested: (1) KRAB-[…] (3) […]. […] Absence of a SMASh-responsive small molecule (GZV) in the negative control led to significant “leaky” repression in the absence of 4OHT (see e.g., FIG. 18).

ZF-responsive promoter [14] = assay: 4OHT-inducible transcriptional activation of a fluorescent protein using ERT2 domain, Jurkat; type: cell-based, human
Description: ERT2 nuclear translocation domain, which is responsive to a small molecule (4-hydroxytamoxifen=4OHT), can be used to regulate a synTF as described herein (see e.g., Indra et al. Nucleic Acids Res (1999)). The human estrogen receptor (ER) contains a ligand responsive domain that, when fused to other protein domains, can yield ligand-dependent control over activity. The domain naturally associates with cytoplasmic factors in the cell in the absence of cognate ligands, effectively sequestering itself in the cytoplasm. Binding of cognate ligands, such as estrogen or other steroid hormone derivatives, cause a conformational change to the receptor that allow dissociation from the cytoplasmic complexes and expose a nuclear localization signal, permitting translocation into the nucleus.
Subsequently, the administration of 4OHT can allow conditional nuclear translocation of the synTF, allowing synTF functionality in the cellular nucleus (see e.g., FIG. 4).
Output fluorescence was measured as a function of several different 4OHT treatment concentrations as indicated (dose response; see e.g., FIG. 8A).

[15] = compared to untreated cell line

SMILES: CC1=CC(=O)CC(C)(C)[C@@]1(O)/C=C/C(C)=C\C(=O)O [ABA, abscisic acid]
fluorescent protein output on administration of small molecule (ZF-responsive promoter [1]): temporal activation of a fluorescent protein output
fluorescent protein output on administration of small molecule (ZF-responsive promoter [2]; [15]): temporal activation of a fluorescent protein output
fluorescent protein output on removal of small molecule (ZF-responsive promoter [2]; removal after four days): temporal de-activation of a fluorescent protein output
fluorescent protein output, synTF with repressor effector domain (ZF-responsive promoter [3]): temporal silencing of a fluorescent protein output

CD19-CAR fold induction (ZF-responsive promoter [8]; day 3, highest concentration): strong fold induction
SMILES: C=C[C@@H]1C[C@]1(NC(=O)[C@@H]1C[C@@H]2CN1C(=O)[C@H](C(C)(C)C)NC(=O)O[C@@H]1C[C@H]1CCCCCc1nc3ccc(OC)cc3nc1O2)C(=O)NS(=O)(=O)C1CC1 [grazoprevir]
level of fluorescent protein activation (ZF-responsive promoter [4]): little-to-no activation
reporter deactivation with SMASh-responsive small molecule (ZF-responsive promoter [5]; grazoprevir for 12 days after 4OHT removal): fast deactivation of the reporter to the baseline levels
CD19-CAR expression in dual-drug context (ZF-responsive promoter [6]; orthogonal ZF-responsive promoter): regulated activation of a fluorescently-tagged chimeric antigen receptor (CD19-CAR) protein
safety profile [7]: exceptional safety profile
CD19-CAR expression (ZF-responsive promoter [8]; CD4+ primary human T cells, several grazoprevir concentrations over time): temporal activation of a fluorescently-tagged chimeric antigen receptor (CD19-CAR) protein; also recorded: dose-dependent expression of synTF
fluorescent protein output on administration of small molecule (ZF-responsive promoter [1]): temporal activation of a fluorescent protein output
fluorescent protein output, synTF with repressor effector domain (ZF-responsive promoter [9]): temporal silencing of a fluorescent protein output
fluorescent protein output on administration of small molecule (ZF-responsive promoter [10]; [15]): temporal activation of a fluorescent protein output
fluorescent protein output on removal of small molecule (ZF-responsive promoter [10]; removal after four days): temporal de-activation of a fluorescent protein output
IL10 expression (ZF-responsive promoter [11]): temporal activation of a cytokine (IL10); also recorded: strong induced expression of IL-10
T-cell activation, cytokine production (IFNgamma, IL-2) [12]: T-cell activation, measured by enhanced production of cytokines; also recorded: dose-dependent production of IFNgamma and IL-2 cytokines
fluorescent protein output, synTF with repressor effector domain (ZF-responsive promoter [3]): temporal silencing of a fluorescent protein output

SMILES: CC/C(=C(\c1ccc(O)cc1)c1ccc(OCCN(C)C)cc1)c1ccccc1 [4OHT, 4-hydroxytamoxifen]
level of fluorescent protein activation (ZF-responsive promoter [4]): maximal activation
fluorescent protein on administration of 4OHT (ZF-responsive promoter [5]; 4 days, all three Jurkat lines): temporal activation of a fluorescent protein
fluorescent protein on removal of 4OHT (ZF-responsive promoter [5]; removal from days 6-16, all cell lines): temporal deactivation of the fluorescent protein
IL4 expression (ZF-responsive promoter [6]; ERT2-synTF): expression and secretion of IL4 cytokine
fluorescent protein on administration of 4OHT, repressor synTFs (ZF-responsive promoter [13]): temporal repression of a fluorescent protein
fluorescent protein output on administration of small molecule (ZF-responsive promoter [1]): temporal activation of a fluorescent protein output
fluorescent protein output on administration of small molecule (ZF-responsive promoter [14]; [15]): temporal activation of a fluorescent protein output
fluorescent protein output on removal of small molecule (ZF-responsive promoter [14]; removal after four days): temporal de-activation of a fluorescent protein output
fluorescent protein output, synTF with repressor effector domain (ZF-responsive promoter [3]): temporal silencing of a fluorescent protein output
